Type in all cases: cell-based
For assay [1], the target named is T1, MRGPRX2 (Homo sapiens, UniProt Q96LB1).
T1 sequence (Q96LB1 1-330): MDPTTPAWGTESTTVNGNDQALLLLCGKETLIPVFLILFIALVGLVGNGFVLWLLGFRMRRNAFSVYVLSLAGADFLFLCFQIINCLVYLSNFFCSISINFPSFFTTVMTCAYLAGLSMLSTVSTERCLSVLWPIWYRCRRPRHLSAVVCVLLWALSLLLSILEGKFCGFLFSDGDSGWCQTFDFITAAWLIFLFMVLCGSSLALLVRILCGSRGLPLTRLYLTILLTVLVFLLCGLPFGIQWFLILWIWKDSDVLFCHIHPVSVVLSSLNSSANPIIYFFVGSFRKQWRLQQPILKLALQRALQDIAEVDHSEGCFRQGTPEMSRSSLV
The assay can be described thus: MRGPRX2 IP1 HTRF Assay. Details: host or cells: CHO-K1. As to conditions: CHO-K1 cells stably expressing human MRGPRX2; IP1 accumulation; agonist Cortistatin 14 1 μM. The source says:
Example B: MRGPRX2 IP1 HTRF Assay
This assay measures compound inhibition of myo-Inositol 1 phosphate (IP1) accumulation in CHO-K1 cells. Chinese hamster ovary (CHO-K1) cells stably expressing human MRGPRX2 were purchased from GenScript (Piscataway, NJ).
For the HTRF IP1 determination, an IP-One GqKit (Perkin Elmer Cisbio, Waltham, MA), which includes all reagents and buffers in this protocol, was used. The cells were maintained in culture medium (Ham's F-12K) containing 10% (v/v) FBS, and 200 μg/mL Zeocin. For the assay, the cells were harvested and resuspended in culture medium with 2% FBS and without Zeocin, then were passed through a 40 μm filter. Cells were added at 20000 cells in a 5 μL/well to a 384-well white small volume cell culture plate (Greiner VWR, Radnor, PA) which contained 50 nL/well of test compound serially diluted at a selected concentration range in DMSO. 5 μL/well of prepared 2× Stimulation Buffer2 was then added to plates and was incubated at 37° C. with 5% CO2 for 1 h. 5 μL/well of agonist Cortistatin 14 (Bio-TechneR&D Systems, Minneapolis, MN) in 1× Stimulation Buffer 2, for a 1 μM final concentration, was then added to plates and incubated at 37° C. with 5% CO2 for 1 h. 6 μL/well of 1:20 diluted Detection Reagent Mix (d2 and Cryptate) was added to the plates and incubated for 1 h in the dark. Plates were read on the PHERAstar microplate reader (BMG Labtech Cary, NC) to determine the HTRF ratio of the acceptor and donor emission signals. The IP1 concentrations were calculated from a standard curve following the IP-One GQ kit instructions. Wells with DMSO only and wells with high concentration of reference antagonist were used as controls for normalization. Compound IC50 curves were globally fitted with 3- or 4-parameter Hill equation in a Genedata Screener (Genedata Basel, Switzerland).
(In general: TR-FRET usually uses a lanthanide donor and a delayed reading to cut background.)

Assay [2] concerns the target T1, MRGPRX2. Description: MRGPRX2 β-Arrestin Assay. Also on record: host or cells: PathHunter CHO-K1. The conditions noted are these: PathHunter CHO-K1 MRGPRX2 β-Arrestin cell line; agonist Cortistatin 14 0.25 μM. The source says:
Example C: MRGPRX2 β-Arrestin Assay
This assay measures compound inhibition of β-Arrestin recruitment, which is part of the G protein-independent pathway that results from the ligand-activated GPCR phosphorylation by specific GPCR kinases. The PathHunter CHO-K1 MRPGRX2 B-Arrestin Cell line stably expressing ProLink tagged MRGPRX2 and Enzyme Acceptor Tagged B-Arrestin was purchased from Eurofins DiscoverX, (Fremont, CA).
The cells were maintained in culture medium from the Europhins DiscoverX Cell Culture Kit-107 which includes FBS, hygromycin B and G418. For the assay, the cells were harvested and were resuspended with Cell Plating Reagent 2 (Eurofins DiscoverX). Cells were added 10000 cells in 25 μL/well to a 384-well black cell culture plate (Greiner VWR, Radnor, PA) which contained 125 nL/well of compound at a selected serially diluted concentration range or DMSO. The plate was incubated at 37° C. with 5% CO2 for 1 h. 2 μL/well of agonist Cortistatin 14 was diluted in Protein Dilution Buffer, (Eurofins DiscoverX) for a final concentration of 0.25 μM, was added and the plate was incubated at 37° C. with 5% CO2 for 90 min. 14 μL/well of Detection Reagent Mix (PathHunter Detection Kit, Eurofins DiscoverX) was added to the plates and further incubated for 1 h in the dark. Plates were read on the PHERAstar microplate reader (BMG Labtech Cary, NC) measuring luminescence 0.1 to 1 s per well. Data was normalized using DMSO only wells and wells with high concentration of reference antagonist as controls. Compound IC50 curves were globally fitted with 3- or 4-parameter Hill equation in a Genedata Screener (Genedata Basel, Switzerland).

For assay [3], the target named is T1, MRGPRX2. The assay can be described thus: MRGPRX2 FLIPR Calcium Mobilization Assay. The conditions noted are these: CHO-K1 cells stably expressing human MRGPRX2; Ca2+ release; agonist Cortistatin-14 at EC80. Details: host or cells: CHO-K1. How it is done: Example A. MRGPRX2 FLIPR Calcium Mobilization Assay
Chinese hamster ovary (CHO-K1) cells stably expressing human MRGPRX2 were purchased from Genescript (Piscataway, NJ). The cells were maintained in culture medium (Ham's F-12K) containing 10% (v/v) FBS, 200 μg/mL Zeocin, 100 units/mL penicillin G and 100 μg/mL streptomycin (Life Technologies, Carlsbad, CA). For the assay, the cells were harvested and resuspended with culture medium without Zeocin before plating at 8000 cells per well in 20 μL in 384-well black clear bottom cell culture plates (VWR, Radnor, PA). After 24 hour culture at 37° C. and 5% CO2, the cells were loaded with 20 μL/well of calcium dye (FLIPR Calcium 6 Assay Kit, Molecular Devices, San Jose, CA) diluted in loading buffer (1× Hank's Balanced Salt Solution (HBSS), 5 mM probenecid, 20 mM 4-(2-hydroxyethyl)-1-piperazineethanesulfonic acid (HEPES), pH 7.4, VWR, Radnor, PA) followed with 45 min incubation at 37° C. and 40 min. at r.t. in the dark. Cells were then treated with the addition of 10 uL/well test compounds with a range of increasing concentrations diluted in the assay buffer (1×HBSS, 20 mM HEPES, pH 7.4, VWR, Radnor, PA) with FLIPR Penta (Molecular Devices. San Jose, CA) and incubated for 30 min. at r.t. Ca^2+ release was measured with FLIPR Penta with 10 s basal fluorescence measurement, then 12.5 μL of 5× agonist Cortistatin-14 (Tocris, Minneapolis, MN) at final concentration corresponding to the EC80 were added followed with continued fluorescence signal monitoring for an additional 110 s. The base line adjusted (median of first 10s base line) max value of the Relative Fluorescence Unit (RFU) was plotted against compound concentrations. Wells with no compound were served as the positive controls, and wells with high concentration of reference antagonist were used as negative controls. IC50 curves were globally fitted with 3- or 4-parameter Hill equation in a Genedata Screener (Genedata Basel, Switzerland).
For orientation: A change in cytosolic calcium serves as a functional read-out for many receptors and channels.

With `CC(c1cc2ncc(Oc3ccc(F)cc3F)cc2cn1)N1CCCC1c1ccccc1` (centres unmarked) [Example 3, 3-(2,4-Difluorophenoxy)-7-(1-(2-phenylpyrrolidin-1-yl)ethyl)-1,6-naphthyridine], the IC50 in assay [1], in assay [2] and in assay [3] was 0.1 to 100 nM each time.

Turning to `Fc1ccc(Oc2cnc3cc(C(N4CCCCC4)C(F)(F)F)ncc3c2)c(F)c1` (centres unmarked) [Example 5, 3-(2,4-Difluorophenoxy)-7-(2,2,2-trifluoro-1-(piperidin-1-yl)ethyl)-1,6-naphthyridine], the values for the IC50 in assay [1], in assay [2] and in assay [3] were 100 to 1000 nM, 0.1 to 100 nM and 0.1 to 100 nM, respectively.

On to `Fc1ccc(Oc2cnc3cc(C(N4CCCC4c4ccccc4)C(F)(F)F)ncc3c2)c(F)c1` (centres unmarked) [Example 7, 3-(2,4-Difluorophenoxy)-7-(2,2,2-trifluoro-1-(2-phenylpyrrolidin-1-yl)ethyl)-1,6-naphthyridine], for which the concentration for half-maximal inhibition (IC50) in assay [1], in assay [2] and in assay [3] was 0.1 to 100 nM throughout.

Turning to `COc1ccc(C2CCCN2C(c2cc3ncc(Oc4ccc(F)cc4F)cc3cn2)C(F)(F)F)cc1` (centres unmarked) [Example 15, 3-(2,4-Difluorophenoxy)-7-(2,2,2-trifluoro-1-(2-(4-methoxyphenyl)pyrrolidin-1-yl)ethyl)-1,6-naphthyridine], the IC50 in assay [1], in assay [2] and in assay [3] was 0.1 to 100 nM each time.

As for `CC(c1cc2ncc(Oc3ccc(F)cc3F)cc2cn1)N1CCCC(F)(F)C1` (centres unmarked) [Example 2, 3-(2,4-Difluorophenoxy)-7-(1-(3,3-difluoropiperidin-1-yl)ethyl)-1,6-naphthyridine], the figures for the IC50 in assay [1] and in assay [3] were 100 to 1000 nM and 0.1 to 100 nM, respectively.

In the case of `CC(c1cc2ncc(Oc3ccc(F)cc3F)cc2cn1)N1CCC(F)(F)C(c2ccc(=O)[nH]c2)C1` (centres unmarked) [Example 4, 5-(1-(1-(3-(2,4-Difluorophenoxy)-1,6-naphthyridin-7-yl)ethyl)-4,4-difluoropiperidin-3-yl)pyridin-2(1H)-one], the concentration for half-maximal inhibition (IC50) in assay [1], in assay [2] and in assay [3] was 0.1 to 100 nM throughout.

Take `Fc1ccc(Oc2cnc3cc(C(N4CCC(F)(F)CC4)C(F)(F)F)ncc3c2)c(F)c1` (centres unmarked) [Example 6, 3-(2,4-Difluorophenoxy)-7-(1-(4,4-difluoropiperidin-1-yl)-2,2,2-trifluoroethyl)-1,6-naphthyridine]: the IC50 in assay [1], in assay [2] and in assay [3] was 0.1 to 100 nM in each case.

For `NC(=O)[C@@H]1CCCN1C(c1cc2ncc(Oc3ccc(F)cc3F)cc2cn1)C(F)(F)F` (stereo partly drawn) [Example 14, (2S)-1-(1-(3-(2,4-Difluorophenoxy)-1,6-naphthyridin-7-yl)-2,2,2-trifluoroethyl)pyrrolidine-2-carboxamide], the IC50 in assay [1], in assay [2] and in assay [3] was 0.1 to 100 nM throughout.

For the compound `CC(c1cc2ncc(Oc3ccc(F)cc3F)cc2cn1)N1CCC(F)(F)CC1` (centres unmarked) [Example 1, 3-(2,4-Difluorophenoxy)-7-(1-(4,4-difluoropiperidin-1-yl)ethyl)-1,6-naphthyridine], the half-inhibitory concentration (IC50) – broadly, the point on the concentration scale where inhibition reaches its midpoint – in assay [1] fell in the range of 100 to 1000 nM; in assay [2], 100 to 1000 nM; in assay [3], 0.1 to 100 nM.

In the case of `Fc1ccc(Oc2cnc3cc(C(N4CCCC4c4ccncc4)C(F)(F)F)ncc3c2)c(F)c1` (centres unmarked) [Example 12, 3-(2,4-Difluorophenoxy)-7-(2,2,2-trifluoro-1-(2-(pyridin-4-yl)pyrrolidin-1-yl)ethyl)-1,6-naphthyridine], the IC50 in assay [1], in assay [2] and in assay [3] was 0.1 to 100 nM each time.

As to `O=c1ccc(C2CCCN(C(c3cc4ncc(Oc5ccc(F)cc5F)cc4cn3)C(F)(F)F)C2)cn1CC(F)(F)F` (centres unmarked) [Example 16, 5-(1-(1-(3-(2,4-Difluorophenoxy)-1,6-naphthyridin-7-yl)-2,2,2-trifluoroethyl)piperidin-3-yl)-1-(2,2,2-trifluoroethyl)pyridin-2(1H)-one], the IC50 in assay [1], in assay [2] and in assay [3] was 0.1 to 100 nM in each case.

For the origin of these results see patent US20250206734A1, “BICYCLIC HETEROCYCLES AS MRGPRX2 ANTAGONISTS” (Incyte Corporation, priority 2023, published 2025).
